In patent publication US20200352912A1, “ANTIMICROBIAL COMPOSITIONS AND METHODS OF USING THE SAME” (The Board Of Supervisors Of Louisiana State University And …, priority 2018, published 2020):

How the values were obtained:
[1] = tested on: C. albicans mono-species biofilm; experiment: biofilm formation on polystyrene (XTT, CFU); format: cell-based, Candida albicans; details: treated vs untreated mono-species biofilms
Description: The effect of L-161,982 on biofilm formation was tested. Mono- and dual-species C. albicans and/or S. aureus biofilms were grown on 96-well plates for 24 h with the indicated concentration of L-161, 982. After incubation, metabolic activity of biofilms was quantified by the XTT assay (A) and then biofilms were disrupted to determine live colony forming units (CFU) (B). The results are cumulative of three independent experiments with duplicate samples. Statistics was performed using One-way ANOVA with the Tukey post-hoc test for the XTT assay. The Mann-Whitney U test was used to analyze CFU data. Significance is indicated as follows: ns—not significant, *P<0.05; *** P<0.001. Error bars represent standard deviation.
Following growth as described above, microbes were washed in phosphate-buffered saline (PBS) by centrifugation, counted on a hemocytometer, and adjusted to 2×10^7 CFU/ml in RPMI buffered with MOPS (165 mM). […]
(§1) The XTT reduction assay was used to determine the metabolic activity of biofilms following treatment with L-161, 982 (17). Briefly, wells were washed once in PBS, and plates incubated at 37° C. for 2 h with 200 μl XTT working reagent (0.5 mg/ml XTT and 1 μM Menadione) and the resulting absorbance measured at 490 nm on a microplate spectrophotometer. […]

[2] = tested on: S. aureus pre-formed mono-species biofilm; experiment: pre-formed mature biofilm (XTT, CFU); format: cell-based, Staphylococcus aureus
Description: The effect of L-161, 982 on pre-formed mature biofilms was tested. Mono- and dual-species C. albicans and/or S. aureus biofilms were grown on 96-well plates for 24 h before being treated with the indicated concentration of L-161, 982 for a further 24 h. After treatment, metabolic activity of biofilms was quantified by the XTT assay (A) and then biofilms were disrupted to determine live colony forming units (CFU) (B). The results are cumulative of three independent experiments with duplicate samples. Statistics were performed using One-way ANOVA with the Tukey post-hoc test for the XTT assay. The Mann-Whitney U test was used to analyze CFU data. Significance is indicated as follows: ns—not significant, *P<0.05; *** P<0.001. Error bars represent standard deviation.
Following growth as described above, microbes were washed in phosphate-buffered saline (PBS) by centrifugation, counted on a hemocytometer, and adjusted to 2×10^7 CFU/ml in RPMI buffered with MOPS (165 mM). For monomicrobial biofilms, 50 μl of adjusted C. albicans or S. aureus culture was added to each well of a sterile 96-well cell culture polystyrene microtiter plate (1×10^6 CFU per well); to this, 50 μl of sterile RPMI+MOPS was added. For polymicrobial biofilms, 50 μl of each organism was added per well (1×10^6 CFU of each organism per well). Plates were incubated for 24 h at 37° C. to induce biofilm formation. Following confirmation of mature biofilm growth by macro- and microscopic examination, plates were washed once with 200 μl sterile saline and then 200 μl RPMI+MOPS containing L-161, 982 at various concentrations (6.25-200 μg/ml) added to each well. […]
as §1

[3] = tested on: S. aureus; experiment: cell membrane integrity by viability (Live/Dead) staining; format: cell-based, Staphylococcus aureus; details: 6 h incubation
Text: To determine the mechanism of action of L-161, 982 against growth of Gram-positive bacteria, we first looked at its effect on cell membrane integrity using viability staining. […] A previous study had reported that the inhibitory effect of L-161, 982 on the proliferation of skeletal muscle myoblasts was due to its ability to induce production of high levels of intracellular reactive oxygen species (ROS) that could be reversed by co-treatment with the antioxidants, N-acetyl cysteine or sodium ascorbate (25).
Although the prostanoid pathway is not conserved in prokaryotes, we questioned whether L-161, 982 inhibited S. aureus growth by increasing intracellular ROS production. […] Future studies will examine other possible mechanisms of action.

**Q.** Which results are given for CCCCc1nn(-c2ccccc2C(F)(F)F)c(=O)n1Cc1ccc(-c2ccccc2S(=O)(=O)NC(=O)c2sccc2C)cc1 [L-161, 982, N-[[4′-[[3-Butyl-1,5-dihydro-5-oxo-1-[2-(trifluoromethyl)phenyl]-4H-1,2,4-triazol-4-yl]methyl][1,1′-biphenyl]-2-yl]sulfonyl]-3-methyl-2-thiophenecarboxamide]?
**A.** metabolic activity during biofilm formation [1]: no significant inhibition; concentration required to weaken pre-formed mature biofilms [2]: 100 µg/mL; CFUs recovered from pre-formed biofilm ([2]; 100 and 200 μg/ml): no CFUs were recovered; metabolic activity of pre-formed biofilm ([2]; all concentrations tested, 24 h treatment): no significant inhibitory effects; cell membrane damage [3]: no evidence of cell membrane damaged
